Laboratory results from patent US6060038A, “Radiolabeled farnesyl-protein transferase inhibitors” (Merck & Co., Inc., priority 1998, dated 2000).
Structures can show the parent of a compound that is named as a salt.

Columns and labels:
FPTase = assay: PET Imaging in Dogs: block of [^11 C]-Compound 1 radiotracer binding by infused FTI; assay type: in vivo, beagle dogs; settings: 10 mpk infused over 5 minutes, radiotracer [^11 C]-Compound 1
Experimental: Kinetics of enzyme occupancy by an unlabeled FPTase inhibitor (test compound) is determined by this assay. Thus, FVB mice are injected the test compound at either 40 mpk or 10 mpk subcutaneously (0.1 mls). Thirty minutes prior to euthanasia, 3 nCi of tritiated farnesyl protein transferase inhibitor (radiotracer) was injected i.p. (0.2 mls 10% EtOH in 0.9% saline). Uninhibited binding of the radiotracer is determined by injection of the radiotracer in mice which have not received injection of the test compound. The mice are euthanized either 2 hours of 14 hours after injection of the test compound and lung, spleen, pancrease and blood are removed and processed as described above. Data are plotted as %-dose/g of tissue (wet weight). […]
Oxygen saturation of circulating blood is measured with a pulse oximeter (Nellcor Inc., Hayward, Calif.) placed on the tongue of the animal. […] EKG, heart rate, and core temperature are monitored continuously. […]
For uninhibited distribution of radiotracer, regions of interest (ROIs) are drawn on the reconstructed image includes the kidney cortex and a region of liver which is removed from the gallbladder images. […] Data are expressed as radioactivity per unit time per unit volume (μCi/cc/mCi injected dose). […]

[1] = Radiochemical decomposition of stored radiotracer samples; assay type: physicochemical; settings: stored for up to 90 minutes in sterile glass vial; saline/sodium bicarbonate
Experimental: The container used for the drug is described above. It consists of a sterile, pyrogen free glass vial with a crimp-sealed aluminum cap surrounding a rubber stopper. Samples of the radiotracer have been stored for up to 90 minutes and analyzed for radiochemical decomposition.

Row | SMILES | block of radiotracer binding (FPTase) | radiochemical decomposition on storage [1]
1 | CCCC[C@H]1CN(c2cccc(C)c2C)C(=O)CN1Cc1cncn1Cc1ccc(C#N)cc1.O=C(O)C(F)(F)F.O=C(O)C(F)(F)F [Compound 3, 5(S)-n-Butyl-4-[1-(4-cyanobenzyl)imidazol-5-ylmethyl]-1-(2,3-dimethylphenyl)piperazin-2-one ditrifluoroacetic acid salt] | completely block radiotracer binding | 
2 | [11CH3]S(=O)(=O)CC[C@H]1CN(c2cc(I)cc(CF)c2)C(=O)CN1Cc1cncn1Cc1ccc(C#N)cc1 [[^11 C]-Compound 1, (S)-1-(3-iodo-5-fluoromethylphenyl)-4-[1-(4-cyanobenzyl)-5-imidazolylmethyl]-5-[2-(^11 C-methanesulfonyl)ethyl]-2-piperazinone dihydrochloride] |  | No decomposition has been observed
